Patent publication US20100203123A1, “METHODS FOR IMPROVING COGNITIVE FUNCTION AND DECREASING HEART RATE” (MARTEK BIOSCIENCES CORPORATION, priority 2009, published 2010)

Experiments:
Assay type in all cases: in vivo, human
[1] = tested on: healthy elderly subjects with a mild memory complaint; test: CANTAB Verbal Recognition Memory (VRM) test
Experimental: The effects of DHA (about 900 mg/day) versus placebo was tested to determine whether cognitive measures of memory, attention, and executive function were improved, utilizing the Cambridge Neuropsychological Test Automated Battery (CANTAB) cognitive battery, in healthy elderly subjects with a mild memory complaint. One objective of the study was to determine the effect of DHA administration versus placebo on improving cognitive functions (i.e., working memory, memory retention, attention, processing speed, and executive function) in healthy elderly with a subjective memory complaint. Another objective of the study included determining the effects of DHA on visual acuity, levels of plasma phospholipids, and evaluating the safety and tolerability of the DHA dose administered.
(§1) The DHA group was provided 800 mg soft-gelatin capsules, each containing about 300 mg DHA as a triglyceride from algal oil (DHASCO®-S oil, 40% DHA). In addition to 40% DHA, DHASCO®-S oil was formulated to contain 40-60% saturated, mono- and polyunsaturated fatty acids, 400 ppm ascorbyl palmitate, 2000 ppm mixed tocopherols, 2000 ppm rosemary extract, 3% orange-flavoring, and 1% natural masking agent. Subjects were instructed to take three 800 mg capsules/day, i.e., about 900 mg DHA/day.
(§2) The secondary efficacy endpoints included: • CANTAB tests of executive function and planning: Spatial Working Memory […] and Stockings of Cambridge (SOC) • CANTAB Verbal Recognition Memory test (VRM) • CANTAB Pattern Recognition test (PRM) • Visual acuity (measured by Snellen Eye chart; corrected vision) • Memory Functioning Questionnaire: Frequency of Forgetting-10 (Self-rating scale) • Activities of Daily Living (ADCS-ADL PI) scale (Self-rating) • Clinical measures of cognitive function and computerized assessments were administered by (CANTAB) certified examiners at each site blinded to the subject's treatment. • Description of CANTAB Battery of tests
Additional tests are included in CANTABeclipse and are available in the CANTABelect batteries. […]

[2] = tested on: healthy elderly subjects with a mild memory complaint; test: CANTAB Stockings of Cambridge (SOC) test; conditions: about 900 mg/d, 24 weeks
Experimental: The effects of DHA (about 900 mg/day) versus placebo was tested to determine whether cognitive measures of memory, attention, and executive function were improved, utilizing the Cambridge Neuropsychological Test Automated Battery (CANTAB) cognitive battery, in healthy elderly subjects with a mild memory complaint. One objective of the study was to determine the effect of DHA administration versus placebo on improving cognitive functions (i.e., working memory, memory retention, attention, processing speed, and executive function) in healthy elderly with a subjective memory complaint. […]
as §2, with “of tests […]” for “of tests”

[3] = Plasma phospholipid fatty acid levels
Experimental: as §1
Blood samples of the subjects were collected at baseline and at the week 24 or “end of study” visit to determine phospholipid levels. Samples were collected into 10 ml vacutainer EDTA tubes, centrifuged at 3000 rpm and plasma was stored at −80° C. until analyzed. Plasma phospholipid fatty acids were analyzed as described previously. See, e.g., Arterburn, L. M., et al., Lipids 42:1011-1024 (2007). The fatty acid profiles were expressed as a percent of the total […] of fatty acid (weight percent).

**Q.** What does the source list for `CC/C=C\C/C=C\C/C=C\C/C=C\C/C=C\C/C=C\CCC(=O)O` [DHA, (all-Z)-4,7,10,13,16,19-docosahexaenoic acid]?
**A.** VRM delayed recognition, change from baseline correct responses, diff. versus placebo ([1]; about 900 mg/d, p<0.02): 0.4±0.18; VRM immediate recognition, change from baseline correct responses, diff. versus placebo ([1]; about 900 mg/d, p<0.02): 0.4±0.17; CANTAB Verbal recognition memory, effect of DHA supplementation ([1]; about 900 mg/day, 6 months): modestly improved; changes in executive function (SOC) [2]: not found; plasma phospholipid DHA change, diff. score versus placebo ([3]; 24 weeks, p<0.001): 3.15±0.16; plasma phospholipid DPAn-6, mean change ([3]; 24 weeks, placebo −0.004, p<0.001): 0.37 weight %; plasma phospholipid EPA, mean change ([3]; 24 weeks, placebo −0.06, p<0.001): 0.16 weight %; plasma phospholipid arachidonic acid (ARA), mean change from baseline ([3]; 24 weeks, placebo −0.12, p<0.001): −1.37 weight %; plasma phospholipid ARA levels, decrease ([3]; about 900 mg/day, six months): 1.4 weight %; plasma phospholipid DHA, increase from baseline ([3]; week 24, about 900 mg/day, placebo −0.08): 3.2 weight %; plasma phospholipid DHA level after treatment ([3]; week 24, baseline 3.2 weight %, p<0.001): 6.4 weight %
